Experimental findings from patent US9593305B2, “Differentiation of pluripotent stem cells” (Janssen Biotech, Inc., priority 2008, dated 2017) are described below.

The test system of test [1] is CDK, GSK3, and/or TRK signaling pathways. Kind of test: Primary selectivity of the proprietary small molecules (Table 16). Conditions: as listed in Table 17. How it is done:
A subset of 14 proprietary small molecules, known to have specificity for the CDK, GSK3, and/or TRK signaling pathways were evaluated for their potential to differentiate human embryonic stem cells to cells expressing markers characteristic of the definitive endoderm lineage.

Test [2] relates to H1 human embryonic stem cells. Kind of test: Screen of CDK, GSK3 and TRK inhibitors with or without GDF-8, SOX17 and cell number (Example 20, Table 17). In kind it is cell-based. The settings on record: Plate 1; for Cell Number, % of positive control / Sox17 Expression, % of positive control: positive control = Activin A/Wnt3a. The procedure: Briefly, clusters of H1 human embryonic stem cells were grown on reduced growth factor Matrigel™ (Invitrogen; Cat #356231) coated tissue culture plastic. Cells were passaged using collagenase (Invitrogen; Cat #17104-019) treatment and gentle scraping, washed to remove residual enzyme, and plated with even dispersal at a ratio of 1:1 (surface area) on reduced growth factor […]™ (BD Biosciences; Cat #356231)-coated 96-well black plates (Packard ViewPlates; PerkinElmer; Cat #6005182) using volumes of 100 μl/well. Cells were allowed to attach and then recover log phase growth over a 1 to 3 day time period, feeding daily with MEF conditioned medium supplemented with 8 ng/ml bFGF (R&D Systems; Cat #233-FB). Plates were maintained at 37° C., 5% CO2 in a humidified box throughout the duration of assay.
Screening was conducted using the compounds described in Table 16. […] Compounds were made available as 5 mM stocks in 96-well plate format, solubilized in 100% DMSO (Sigma; Cat #D2650) and stored at −80° C. The library compounds were further diluted to an intermediate concentration of 0.2 mM in 50 mM HEPES (Invitrogen; Cat #15630-080), 20% DMSO and stored at 4° C. Test conditions were performed in triplicate, feeding on alternating days over a four-day assay period. Assay was initiated by aspirating culture medium from each well followed by three washes in PBS (Invitrogen; Cat #14190) to remove residual growth factors. On the first day of assay, test volumes of 200 μl per well were added to each well using DMEM:F12 base medium (Invitrogen; Cat #11330-032) supplemented with 0.5% FCS (HyClone; Cat #SH30070.03) and 100 ng/ml GDF-8 (R&D Systems, Cat #788-G8) plus 2.5 μM compound. A parallel set of test samples were treated in an identical manner but omitting GDF-8 from the medium. On the third day of assay, test volumes of 100 μper well were added to each well using DMEM:F12 base medium supplemented with 2% FCS plus 100 ng/ml GDF-8 (R&D Systems, Cat #788-G8). […] Positive control samples contained the same base medium supplemented with FCS and 100 ng/ml recombinant human activin A (PeproTech; Cat #120-14) throughout the four day assay along with Wnt3a (20 ng/ml) addition on days 1 and 2. Negative control samples contained DMEM:F12 base medium supplemented with FCS.
At the conclusion of four-days of culture, assay plates were washed twice with PBS (Invitrogen; Cat #14190), fixed with 4% paraformaldehyde (Alexis Biochemical; Cat #ALX-350-011) at room temperature for 20 minutes, then washed three times with PBS and permeabilized with 0.5% Triton X-100 (Sigma; Cat #T8760-2) for 20 minutes at room temperature. Cells were washed again three times with PBS and blocked with 4% chicken serum (Invitrogen; Cat #16110082) in PBS for 30 minutes at room temperature. Primary antibody (goat anti-human SOX17; R&D Systems; Cat #AF1924) was diluted 1:100 in 4% chicken serum and added to each well for one hour at room temperature. Alexa Fluor 488 conjugated secondary antibody (chicken anti-goat IgG; Molecular Probes; Cat #AZ1467) was diluted 1:200 in PBS and added to each sample well after washing three times with PBS. To counterstain nuclei, 4 μg/ml Hoechst 33342 (Invitrogen; Cat #H3570) was added for ten minutes at room temperature. Plates were washed once with PBS and left in 100 μl/well PBS for imaging.
Imaging was performed using an IN Cell Analyzer 1000 (GE Healthcare) utilizing the 51008bs dichroic for cells stained with Hoechst 33342 and Alexa Fluor 488. Exposure times were optimized from positive control wells and from untreated negative control wells stained with secondary antibody alone. Images from 15 fields per well were acquired to compensate for any cell loss during the bioassay and subsequent staining procedures. Measurements for total cell number and total SOX17 intensity were obtained from each well using IN Cell Developer Toolbox 1.7 (GE Healthcare) software. […]

Where [3] appears, read: compound in combination with GDF8.

As to `O=C1COc2cccc(c2)Nc2nccc(n2)Nc2cccc(c2)OCCCN1` [Compound 42, 14,21-Dioxa-2,4,8,18,28-pentaazatetracyclo[20.3.1.1˜3,7˜0.1˜9,13˜]octacosa-1(26), 3(28), 4,6,9(27), 10,12,22,24-nonaen-19-one], the “Compound Selectivity” value in test [1] was “Selective for CDK”. For the same compound, in test [2] (compound alone, No GDF8), the “Cell Number, Average Total Cell Number” value came to 8700; the “Sox17 Expression, Average Total Intensity” value is listed as −2.4E+05; the “Cell Number, % of positive control” value was 60.1 % of positive control; the “Sox17 Expression, % of positive control” value is −0.1 % of positive control. Further, in test [2] (setting [3]), the “Cell Number, Average Total Cell Number” value is 5686; the “Sox17 Expression, Average Total Intensity” value stood at 4.9E+07; the “Cell Number, % of positive control” value is 39.3 % of positive control; the “Sox17 Expression, % of positive control” value was 21.2 % of positive control.

Consider `CN1CCCc2cccc(c2)-c2nnc([nH]2)Nc2cccc(c2)CN2CCN(CC2)C(=O)C1` [Compound 43, 21-Methyl-1,8,10,11,21,24,30-heptaazapentacyclo[22.2.2.1˜3,7˜0.1˜9,12˜0.1˜13,17˜]hentriaconta-3(31). 4,6,9,11,13(29), 14,16-octaen-23-one], for which, in test [1], the “Compound Selectivity” value is recorded as “Selective for Trk”. Further, in test [2] (compound alone, No GDF8), the “Cell Number, Average Total Cell Number” value is 8610; the “Sox17 Expression, Average Total Intensity” value is −2.1E+05; the “Cell Number, % of positive control” value was 59.5 % of positive control; the “Sox17 Expression, % of positive control” value was −0.1 % of positive control. Besides, in test [2] (setting [3]), the “Cell Number, Average Total Cell Number” value came to 6682; the “Sox17 Expression, Average Total Intensity” value came out at 5.4E+07; the “Cell Number, % of positive control” value was 46.2 % of positive control; the “Sox17 Expression, % of positive control” value is reported as 23.4 % of positive control.

As to `O=C1NCc2cccc(c2)-c2ccnc(n2)Nc2ccc(C(=O)N3CCOCC3)c(c2)CN2CCC[C@@H]12` [Compound 44, (18S)-11-(Morpholin-4-ylcarbonyl)-5,7,14,20,28-pentaazapentacyclo[20.3.1.1˜2,6˜0.1˜8,12˜0.0˜14,18˜]octacosa-1(26), 2(28), 3,5,8(27), 9,11,22,24-nonaen-19-one], the “Compound Selectivity” value in test [1] was “Selective for GSK”. In test [2] (compound alone, No GDF8), the “Cell Number, Average Total Cell Number” value is recorded as 14; the “Sox17 Expression, Average Total Intensity” value is −1.1E+06; the “Cell Number, % of positive control” value is given as 0.1 % of positive control; the “Sox17 Expression, % of positive control” value is given as −0.5 % of positive control. In test [2] (setting [3]), the “Cell Number, Average Total Cell Number” value amounted to 226; the “Sox17 Expression, Average Total Intensity” value is −9.5E+05; the “Cell Number, % of positive control” value is 1.6 % of positive control; the “Sox17 Expression, % of positive control” value was −0.4 % of positive control.

With `COc1ccc2cc1OCCCC(=O)N(C)CC1CN(Cc3c[nH]c4ncnc(c34)N2)C1` [Compound 45, 10-Methoxy-17-methyl-2,14,15,17,18,19,20,22-octahydro-6H-1-19.21 methano-7,11-(metheno)-12-oxa-2,3,5,6,17,21-hexaazacycloicosa[1,2,3-cd]inden-16(13H)-one], in test [1], the “Compound Selectivity” value is listed as “Selective for Trk”. In test [2] (compound alone, No GDF8), the “Cell Number, Average Total Cell Number” value was 8857; the “Sox17 Expression, Average Total Intensity” value is −4.5E+05; the “Cell Number, % of positive control” value is recorded as 61.2 % of positive control; the “Sox17 Expression, % of positive control” value is reported as −0.2 % of positive control. Also, in test [2] (setting [3]), the “Cell Number, Average Total Cell Number” value came to 9540; the “Sox17 Expression, Average Total Intensity” value stood at 1.1E+08; the “Cell Number, % of positive control” value was 65.9 % of positive control; the “Sox17 Expression, % of positive control” value is given as 47.9 % of positive control.
